Article PMC11866022, “Long-Chain Cyclic Arylguanidines as Multifunctional Serotonin Receptor Ligands with Antiproliferative Activity” (ACS Omega, 2025)

What was measured:
[1] = tested on: LN-229 glioblastoma cells; experiment: Antiproliferative activity (MTS), LN-229; assay type: cell-based, human; details: Homo sapiens, LN-229; MTS assay, 72 h
Experimental: (§1) These cell lines were characterized by different mutation profiles, the main one being the variable status of the p53 protein. In detail, U87MG cells have a wild-type p53 protein, while astrocytoma and the rest of GBM cells harbor mutated p53 protein. Additional assays were performed on MCF7 breast cancer and AsPC-1 pancreatic cancer cells. The wide range of tested lines was aimed at screening the anticancer potential of the tested compounds. The first represents one of the most common and the second one of the most aggressive cancers in the world. Comparing the activity of compounds on GBM cells to other types of cancer may reveal their selectivity and usefulness in targeted therapies. The cytotoxicity of the compounds on normal human astrocytes (NHA) and Feline catus astrocyte (PG-4) was determined. Tests on normal lines serve to verify the potential toxicity of the tested compounds on healthy cells. Due to the targeting of CNS tumors, astrocytes were selected as normal lines.
(§2) The detailed procedure is presented in previous publications.[53] […] Cells were cultured in appropriate media, supplemented with FBS, antibiotics, and other supplements, and incubated at 37 °C with 5% CO2. […] Cell viability was assessed using the MTS assay, and the inhibitory concentration (IC50) was calculated using GraphPad Prism 8.0. Each compound was tested in triplicate across multiple experiments.

[2] = Affinity to phospholipids, CHI IAM (Valko protocol); assay type: physicochemical; details: IAM column
Experimental: Lipophilicity and affinity for phospholipids for each investigated molecule were assessed. Additionally, selected compounds with the highest biological activities have been characterized by their affinity plasma proteins. All experiments were performed using protocols developed by Valko.[35] These methods facilitated the calculation of chromatographic hydrophobicity indices (CHI) and plasma protein binding percentages (%PPB) in a biochromatographic experiment, with results compared to the reference. A detailed description of the experiments is provided in the Supporting Information (SI), along with the raw data. […] Although high lipophilicity may limit the medical use of the analyzed compounds since they may tend to accumulate excessively in the human body, it is remarkable that several clinically used drugs also have high lipophilicity. […] (Table 5).
The detailed procedure is presented in previous publications.[53] High-performance liquid chromatography (HPLC) analyses were conducted using the Prominence-1 LC-2030C 3D system (Shimadzu) with a DAD detector, employing three different chromatographic columns with specific stationary phases and mobile phases. The analysis was performed at 30 °C with a flow rate of 1.5 mL/min for IAM and C18 columns, and 0.9 mL/min for the Chiralpak column. Calibration standards for the columns were sourced from various suppliers and dissolved in dimethyl sulfoxide. Detection occurred in the UV range (190–300 nm) with a 5 μL injection volume. Each compound was analyzed in triplicate. Retention times for the tested compounds and calibration standards are provided in the Supporting Information (Tables S1 and S2).

5-HT1A = target: T1, 5-HT1A (Homo sapiens, UniProt P08908); experiment: Radioligand binding assay, 5-HT1A ([3H]-8-OHDPAT); details: Table 3, unit inferred; 2.5 nM [3H]-8-OHDPAT
T1 construct: expressed in transfected cells; host or cells: HEK293
T1 sequence (P08908 1-422): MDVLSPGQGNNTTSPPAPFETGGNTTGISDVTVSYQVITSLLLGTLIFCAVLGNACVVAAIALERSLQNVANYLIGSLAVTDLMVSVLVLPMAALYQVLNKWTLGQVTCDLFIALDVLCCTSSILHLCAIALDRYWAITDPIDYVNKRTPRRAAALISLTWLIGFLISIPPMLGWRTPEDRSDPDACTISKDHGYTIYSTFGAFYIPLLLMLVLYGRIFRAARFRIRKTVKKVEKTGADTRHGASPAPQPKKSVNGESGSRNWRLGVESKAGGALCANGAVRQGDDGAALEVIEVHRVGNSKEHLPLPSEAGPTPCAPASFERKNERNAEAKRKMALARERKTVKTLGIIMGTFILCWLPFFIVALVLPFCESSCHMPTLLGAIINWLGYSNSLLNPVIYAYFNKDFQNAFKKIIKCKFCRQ
Experimental: (§3) Their functional activity was also evaluated by assessing their ability to inhibit agonist-induced cAMP production in HEK293 cells (Table 3). Extended radioisotope tests were aimed at detecting potential affinity for other aminergic receptors, whose role in cancer treatment may be important. Functions were tested for all receptors. The essence of functional tests results from the fact that serotonin stimulates tumor progression. Therefore, the ligand should have the potential to reduce its concentration, i.e., act as an antagonist.[39]
The detailed procedure is presented in previous publications.[53] Assays were performed by incubating for 1 h at 37 °C (room temperature for 5-HT1A) in 200 μL volumes on 96-well plates. The reaction was terminated by rapid filtration using Unifilter plates, and radioactivity on the filters was measured with a PerkinElmer Microbeta plate reader. Radioligands used were:
Eight concentrations (10^–4 to 10^–11 M) were tested in triplicate for each compound. Inhibition constants (Ki) were calculated using the Cheng–Prusoff equation.[54] The results are expressed as the means of at least two independent experiments.

MCF7 breast cancer cells = experiment: Antiproliferative activity (MTS), MCF7; assay type: cell-based, human; details: Homo sapiens, MCF7; MTS assay, 72 h
Experimental: as §1, §2

1321N1 astrocytoma cells = experiment: Antiproliferative activity (MTS), 1321N1; assay type: cell-based, human; details: Homo sapiens, 1321-N1; MTS assay
Experimental: as §1, §2
Supplementary materials - Biological research […]

5-HT6 = target: T2, 5-HT6 (Homo sapiens, UniProt P50406); experiment: Functional cAMP assay (LANCE Ultra), 5-HT6; assay type: cell-based; details: for function at 5-HT6: in words; for Kb: Table 3, unit inferred, cAMP, antagonist mode, 5-CT
T2 construct: expressed in transfected cells; host or cells: HEK293
T2 sequence (P50406 whole entry): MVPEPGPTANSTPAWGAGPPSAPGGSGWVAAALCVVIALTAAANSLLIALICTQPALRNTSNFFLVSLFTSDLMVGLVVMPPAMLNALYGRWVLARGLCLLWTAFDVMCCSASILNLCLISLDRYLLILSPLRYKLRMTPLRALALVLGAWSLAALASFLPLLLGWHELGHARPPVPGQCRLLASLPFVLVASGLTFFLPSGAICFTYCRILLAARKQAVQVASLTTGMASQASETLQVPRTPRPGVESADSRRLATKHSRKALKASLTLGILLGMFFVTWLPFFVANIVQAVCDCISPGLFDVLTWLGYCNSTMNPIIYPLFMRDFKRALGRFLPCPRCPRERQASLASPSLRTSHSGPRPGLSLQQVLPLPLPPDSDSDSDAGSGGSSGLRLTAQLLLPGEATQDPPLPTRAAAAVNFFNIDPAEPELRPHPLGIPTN
Experimental: as §3
The detailed procedure is presented in previous publications.[53] The functional activity of the compounds was assessed using the LANCE Ultra cAMP detection kit (PerkinElmer). […] For other receptors (5-HT7R, 5-HT1AR, and 5-HT6R), 5-CT was used at 10, 100, and 1000 nM, respectively. Each compound was tested in triplicate across eight concentrations. The inhibitory constant (Kb) for each antagonist was calculated using the Cheng–Prusoff equation.

HepG2 hepatoma cells = experiment: Hepatotoxicity (MTS), HepG2; assay type: cell-based, human; details: 48 h; for hepatotoxic effect on HepG2: 1–10 μM; for HepG2 cell viability: 50 or 100 μM
Experimental: As a next step, we decided to investigate the potential toxicity of our lead compounds by assessing their toxic effects on the liver (in vitro), heart, and brain (in vivo). The safety profile was assessed through a hepatotoxicity assay using HepG2 hepatoma cells. (Figures 2E,F, 3E,F).

[3] = Solubility in DMSO and 10% DMSO in PBS buffer; assay type: physicochemical; details: symbols not defined; for Solubility, 10% DMSO, 1 mM: 10% DMSO in PBS buffer
Experimental: for 24 h. […] The IC50 were calculated as
Table S1. Solubility in DMSO and 10% DMSO in PBS buffer
3. Absorption – PAMPA permeability test
*Permeability coefficient.
**CFN = caffeine, well-permeable control

IC50 [1] [µM] | CHI IAM [2] | IC50 (MCF7 breast cancer cells) [µM] | IC50 (1321N1 astrocytoma cells) [µM] | SMILES | Ki (5-HT1A) [µM] | function at 5-HT6 (5-HT6) | hepatotoxic effect on HepG2 (HepG2 hepatoma cells) | HepG2 cell viability (HepG2 hepatoma cells) | Solubility, 10% DMSO, 1 mM [3] | Solubility, 100% DMSO, 10 mM [3] | Kb (5-HT6) [µM] | cytotoxic effect on HepG2 (HepG2 hepatoma cells; 10 μM)
> 25 | 50.9 | > 25 | 20.9 ± 1.4 | O=S(=O)(c1cccc2ccccc12)N1CCN(CCNC2=Nc3ccccc3CN2)CC1 [PP 6, N-{2-[4-(Naphthalene-1-sulfonyl)piperazin-1-yl]ethyl}-3,4-dihydroquinazolin-2-amine] | 0.042 | agonist |  |  |  |  |  | 
> 25 | 59.9 | 19.3 ± 0.3 | 9.6 ± 1.8 | CC1NC(NCCCCCCNS(=O)(=O)c2c(Cl)ccc3ccccc23)=Nc2ccccc21 (stereo not drawn) [PP 13, 2-Chloro-N-{6-[(4-methyl-3,4-dihydroquinazolin-2-yl)amino]hexyl}naphthalene-1-sulfonamide] | 0.019 | agonist | no hepatotoxic effects | statistically significant decrease in cell viability | + + + | + + + |  | 
18.4 ± 1.1 | 56.5 | 15.7 ± 1.6 | 8.4 ± 1.9 | O=S1(=O)c2cccc3cccc(c23)N1CCCCCCNC1=Nc2ccccc2CN1 [PP 24, 3-{6-[(3,4-Dihydroquinazolin-2-yl)amino]hexyl}-2λ^6-thia-3-azatricyclo[6.3.1.0^4,^12]dodeca-1(11),4(12),5,7,9-pentaene-2,2-dione] |  |  |  |  | + + + | + + + |  | strong cytotoxic effect

SMILES | IC50 [1] [µM] | CHI IAM [2] | IC50 (MCF7 breast cancer cells) [µM] | IC50 (1321N1 astrocytoma cells) [µM] | Ki (5-HT1A) [µM] | function at 5-HT6 (5-HT6) | hepatotoxic effect on HepG2 (HepG2 hepatoma cells) | HepG2 cell viability (HepG2 hepatoma cells) | Solubility, 10% DMSO, 1 mM [3] | Solubility, 100% DMSO, 10 mM [3] | Kb (5-HT6) [µM] | cytotoxic effect on HepG2 (HepG2 hepatoma cells; 10 μM)
CC1NC(NCCCCCCNS(=O)(=O)c2cccc3ccccc23)=Nc2ccccc21 (stereo not drawn) [PP 10, N-{6-[(4-Methyl-3,4-dihydroquinazolin-2-yl)amino]hexyl}naphthalene-1-sulfonamide] | > 25 | 56.4 | > 25 | 13.4 ± 0.8 | 0.165 | antagonist | no hepatotoxic effects | statistically significant decrease in cell viability | + + + | + + + | 0.036 | 
O=S(=O)(NCCCCCCNc1ncc2ccccc2n1)c1cccc2ccccc12 [PP 15, N-{6-[(Quinazolin-2-yl)amino]hexyl}naphthalene-1-sulfonamide] | > 25 | 45.8 | > 25 | > 25 | 7.16 | antagonist | no hepatotoxic effects | statistically significant decrease in cell viability | + + - | + + - | 0.048 | 
